Drawing on US9096500B2, “Acyl sulfonamide compounds” (Pfizer Limited, priority 2010, dated 2015), this text covers IC50 for 28 molecules.

Where a name gives a salt, the structure may show the parent alone. Bounds are passed on as bounds.

In the assay the target is T1, Nav1.7 (or SCN9A) channel (Homo sapiens, UniProt Q15858).
T1 construct: expressed in transfected cells
T1 sequence (Q15858 whole entry): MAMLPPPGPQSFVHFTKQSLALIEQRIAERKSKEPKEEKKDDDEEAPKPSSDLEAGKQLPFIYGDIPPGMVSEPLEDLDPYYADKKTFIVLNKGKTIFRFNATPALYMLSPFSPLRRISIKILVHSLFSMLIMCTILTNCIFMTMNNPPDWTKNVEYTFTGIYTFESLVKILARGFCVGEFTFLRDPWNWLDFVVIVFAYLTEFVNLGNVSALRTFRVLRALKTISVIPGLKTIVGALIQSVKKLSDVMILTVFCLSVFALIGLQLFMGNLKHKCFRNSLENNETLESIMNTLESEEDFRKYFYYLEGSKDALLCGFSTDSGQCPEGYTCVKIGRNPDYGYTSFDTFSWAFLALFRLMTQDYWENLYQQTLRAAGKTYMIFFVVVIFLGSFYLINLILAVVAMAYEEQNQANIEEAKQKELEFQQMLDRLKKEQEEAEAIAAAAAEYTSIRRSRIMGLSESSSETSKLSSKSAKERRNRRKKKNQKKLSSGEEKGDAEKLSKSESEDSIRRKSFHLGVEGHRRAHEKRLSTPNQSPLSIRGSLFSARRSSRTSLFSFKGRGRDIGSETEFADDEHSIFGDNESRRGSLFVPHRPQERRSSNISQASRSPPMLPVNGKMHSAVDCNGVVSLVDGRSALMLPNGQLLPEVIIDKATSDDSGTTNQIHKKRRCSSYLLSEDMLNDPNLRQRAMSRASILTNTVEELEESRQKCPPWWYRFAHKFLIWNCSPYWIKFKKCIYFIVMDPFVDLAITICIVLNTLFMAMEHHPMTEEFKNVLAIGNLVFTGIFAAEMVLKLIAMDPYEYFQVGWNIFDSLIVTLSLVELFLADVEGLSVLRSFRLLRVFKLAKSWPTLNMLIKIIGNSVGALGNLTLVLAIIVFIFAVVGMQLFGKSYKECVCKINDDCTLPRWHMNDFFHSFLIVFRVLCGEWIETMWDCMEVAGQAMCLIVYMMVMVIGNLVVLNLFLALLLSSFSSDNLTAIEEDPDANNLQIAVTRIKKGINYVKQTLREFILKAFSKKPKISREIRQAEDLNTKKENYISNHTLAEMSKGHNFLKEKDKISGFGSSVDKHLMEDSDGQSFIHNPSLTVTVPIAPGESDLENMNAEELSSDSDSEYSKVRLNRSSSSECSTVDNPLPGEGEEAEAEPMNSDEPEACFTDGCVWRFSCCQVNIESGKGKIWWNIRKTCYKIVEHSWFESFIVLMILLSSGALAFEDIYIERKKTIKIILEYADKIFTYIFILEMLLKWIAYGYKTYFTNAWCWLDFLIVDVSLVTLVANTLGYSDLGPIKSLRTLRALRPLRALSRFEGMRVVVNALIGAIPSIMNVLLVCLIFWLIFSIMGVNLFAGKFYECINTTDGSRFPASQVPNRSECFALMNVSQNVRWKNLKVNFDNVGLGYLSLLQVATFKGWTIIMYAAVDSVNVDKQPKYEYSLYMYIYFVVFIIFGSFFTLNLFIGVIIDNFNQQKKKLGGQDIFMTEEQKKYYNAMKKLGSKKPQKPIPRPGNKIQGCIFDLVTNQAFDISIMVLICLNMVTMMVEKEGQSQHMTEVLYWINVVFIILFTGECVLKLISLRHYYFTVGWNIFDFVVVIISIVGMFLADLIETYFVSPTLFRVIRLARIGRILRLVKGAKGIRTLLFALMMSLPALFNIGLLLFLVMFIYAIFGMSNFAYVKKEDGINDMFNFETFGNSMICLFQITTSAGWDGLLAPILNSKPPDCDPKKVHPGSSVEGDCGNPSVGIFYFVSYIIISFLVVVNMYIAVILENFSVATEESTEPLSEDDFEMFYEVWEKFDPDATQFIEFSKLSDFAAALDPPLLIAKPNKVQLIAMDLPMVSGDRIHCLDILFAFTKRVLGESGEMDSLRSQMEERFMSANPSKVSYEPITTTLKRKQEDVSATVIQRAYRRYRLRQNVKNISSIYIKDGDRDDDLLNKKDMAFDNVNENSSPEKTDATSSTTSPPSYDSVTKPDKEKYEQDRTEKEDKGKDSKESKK
In words: Nav1.7 (hSCN9A) electrophysiology assay, PatchXpress platform. As to conditions: estimated IC50 from single point electrophysiology data, HEK cells stably expressing hSCN9A, held at V1/2 of inactivation, read-out: Nav1.7 EIC50. Type of assay: cell-based. The procedure: The ability of the compounds of formula (I) to block the Nav1.7 (or SCN9A) channel were measured using the assay described below.
Human Embryonic Kidney (HEK) cells were transfected with an hSCN9A construct using lipofectamine reagent (Invitrogen), using standard techniques. Cells stably expressing the hSCN9A constructs were identified by their resistance to G-418 (400 μg/ml). Clones were screened for expression using the whole-cell voltage-clamp technique.
HEK cells stably transfected with hSCN9A were maintained in DMEM medium supplemented with 10% heat-inactivated fetal bovine serum and 400 μg/ml G-418 in an incubator at 37° C. with a humidified atmosphere of 10% CO2. For HTS, cells were harvested from flasks by trypsinization and replated in an appropriate multi-well plate (typically 96 or 384 wells/plate) such that confluence would be achieved within 24 hours of plating. For electrophysiological studies, cells were removed from the culture flask by brief trypsinization and re-plated at low density onto glass cover slips. Cells were typically used for electrophysiological experiments within 24 to 72 hours after plating.
Cover slips containing HEK cells expressing hSCN9A were placed in a bath on the stage of an inverted microscope and perfused (approximately 1 ml/minutes) with extracellular solution of the following composition: 138 mM NaCl, 2 mM CaCl2, 5.4 mM KCl, 1 mM MgCl2, 10 mM glucose, and 10 mM HEPES, pH 7.4, with NaOH. […] The osmolarity of the extracellular and intracellular solutions was 300 mOsm/kg and 295 mOsm/kg, respectively. All recordings were made at room temperature (22-24° C.) using AXOPATCH 200B amplifiers and PCLAMP software (Axon Instruments, Burlingame, Calif.).
hSCN9A currents in HEK cells were measured using the whole-cell configuration of the patch-clamp technique (Hamill et al., 1981). Uncompensated series resistance was typically 2 to 5 mega ohms and >85% series resistance compensation was routinely achieved. […] Current records were acquired at 20 to 50 KHz and filtered at 5 to 10 KHz.
HEK cells stably transfected with hSCN9A were viewed under Hoffman contrast optics and placed in front of an array of flow pipes emitting either control or compound-containing extracellular solutions. All compounds were dissolved in dimethyl sulfoxide to make 10 mM stock solutions, which were then diluted into extracellular solution to attain the final concentrations desired. […] The voltage-dependence of inactivation was determined by applying a series of depolarizing prepulses (8 sec long in 10 mV increments) from a negative holding potential. The voltage was then immediately stepped to 0 mV to assess the magnitude of the sodium current. Currents elicited at 0 mV were plotted as a function of prepulse potential to allow estimation of the voltage at which 50% of the channels were inactivated (midpoint of inactivation or V1/2). Compounds were tested for their ability to inhibit hSCN9A sodium channels by activating the channel with a 20 msec voltage step to 0 mV following an 8 second conditioning prepulse to the empirically determined V1/2. Compound effect (% inhibition) was determined by difference in current amplitude before and after application of test compounds. […] Inhibition values <20% and >80% were excluded from the calculation.
Electrophysiological assays were conducted with PatchXpress 7000 hardware and associated software (Molecular Devices Corp). All assay buffers and solutions were identical to those used in conventional whole-cell voltage clamp experiments described above. hSCN9A cells were grown as above to 50%-80% confluency and harvested by trypsinization. Trypsinized cells were washed and resuspended in extracellular buffer at a concentration of 1×10^6 cells/ml. The onboard liquid handling facility of the PatchXpress was used for dispensing cells and application of test compounds.
`CCc1ccc(OCc2ccc(C(=O)NS(C)(=O)=O)c(F)c2)cc1` [Example 40, 4-[(4-Ethylphenoxy)methyl]-2-fluoro-N-(methylsulfonyl)benzamide diethylamine salt]: the IC50 is 0.56 µM. Take `CCc1ccc(OCc2ccc(C(=O)NS(C)(=O)=O)c(OC)c2)cc1` [Example 41, 4-[(4-Ethylphenoxy)methyl]-2-methoxy-N-(methylsulfonyl)benzamide diethylamine salt]: the IC50 was 3.7 µM.

Take `CCc1ccc(OCc2ccc(C(=O)NS(C)(=O)=O)cc2OC)cc1` [Example 42, 4-[(4-Ethylphenoxy)methyl]-3-methoxy-N-(methylsulfonyl)benzamide diethylamine salt]: the IC50 is 0.25 µM.

As for `CCc1ccc(OCc2ccc(C(=O)NS(C)(=O)=O)c(C)c2)cc1` [Example 43, 4-[(4-Ethylphenoxy)methyl]-2-methyl-N-(methylsulfonyl)benzamide diethylamine salt], the IC50 was 4.2 µM. Consider `CS(=O)(=O)NC(=O)c1cc(F)c(COc2ccc(C#N)cc2Cl)cc1F` [Example 44, 4-[(2-Chloro-4-cyanophenoxy)methyl]-2,5-difluoro-N-(methylsulfonyl)benzamide], for which the IC50 is 2 µM. For the molecule `CS(=O)(=O)NC(=O)c1cc(F)c(COc2ccc(Cl)c(C#N)c2)cc1F` [Example 47, 4-[(4-Chloro-3-cyanophenoxy)methyl]-2,5-difluoro-N-(methylsulfonyl)benzamide], the IC50 was 1.4 µM. Turning to `CS(=O)(=O)NC(=O)c1cc(F)c(COc2ccc(F)c(F)c2)cc1F` [Example 48, 4-[(3,4-Difluorophenoxy)methyl]-2,5-difluoro-N-(methylsulfonyl)benzamide], the IC50 was 1.1 µM. Turning to `CS(=O)(=O)NC(=O)c1cc(F)c(COc2ccc(Cl)c(F)c2)cc1F` [Example 49, 4-[(4-Chloro-3-fluorophenoxy)methyl]-2,5-difluoro-N-(methylsulfonyl)benzamide], the IC50 was 0.16 µM.

For `CS(=O)(=O)NC(=O)c1cc(F)c(COc2ccc(Cl)c(OC(F)F)c2)cc1F` [Example 50, 4-{[4-chloro-3-(difluoromethoxy)phenoxy]methyl}-2,5-difluoro-N-(methylsulfonyl)benzamide], the IC50 was 0.22 µM.

As for `CS(=O)(=O)NC(=O)c1cc(F)c(COc2ccc(Cl)c(OC(F)(F)F)c2)cc1F` [Example 51, 4-((4-Chloro-3-(trifluoromethoxy)phenoxy)methyl)-2,5-difluoro-N-(methylsulfonyl)benzamide], the IC50 is 0.012 µM. With `CS(=O)(=O)NC(=O)c1cc(F)c(COc2ccc(OC(F)F)c(Cl)c2)cc1F` [Example 52, 4-{[3-Chloro-4-(difluoromethoxy)phenoxy]methyl}-2,5-difluoro-N-(methylsulfonyl)benzamide], the IC50 is 0.13 µM.

Regarding `CS(=O)(=O)NC(=O)c1cc(F)c(COc2ccc(OC(F)(F)F)c(Cl)c2)cc1F` [Example 53, 4-((3-Chloro-4-(trifluoromethoxy)phenoxy)methyl)-2,5-difluoro-N-(methylsulfonyl)benzamide], the IC50 is 0.013 µM.

As for `CS(=O)(=O)NC(=O)c1cc(F)c(COc2ccc(Cl)c(C(F)(F)F)c2)cc1F` [Example 54, 4-((4-Chloro-3-(trifluoromethyl)phenoxy)methyl)-2,5-difluoro-N-(methylsulfonyl)benzamide], the IC50 was 0.13 µM. As for `CS(=O)(=O)NC(=O)c1cc(F)c(COc2cc(F)ccc2F)cc1F` [Example 55, 4-[(2,5-Difluorophenoxy)methyl]-2,5-difluoro-N-(methylsulfonyl)benzamide], the IC50 is 0.57 µM.

Turning to `CS(=O)(=O)NC(=O)c1cc(F)c(COc2cccc(OC(F)(F)F)c2)cc1F` [Example 56, 4-[(3-Trifluoromethoxy)methyl]-2,5-difluoro-N-(methylsulfonyl)benzamide], the IC50 is 0.088 µM.

For `CS(=O)(=O)NC(=O)c1cc(F)c(COc2cc(F)c(F)cc2F)cc1F` [Example 57, 2,5-Difluoro-N-(methylsulfonyl)-4-[(2,4,5-trifluorophenoxy)methyl]benzamide], the IC50 was 1.1 µM.

Consider `CS(=O)(=O)NC(=O)c1cc(Cl)c(OCc2ccc(C(F)(F)F)c(Cl)c2)cc1F` [Example 58, 5-Chloro-4-(3-chloro-4-(trifluoromethyl)benzyloxy)-2-fluoro-N-(methylsulfonyl)benzamide], for which the IC50 was 0.021 µM. With `CS(=O)(=O)NC(=O)c1cc(Cl)c(OCc2ccc(Cl)c(C(F)(F)F)c2)cc1F` [Example 59, 5-Chloro-4-(4-chloro-3-(trifluoromethyl)benzyloxy)-2-fluoro-N-(methylsulfonyl)benzamide] the figure was 0.014 µM; with `CS(=O)(=O)NC(=O)c1cc(Cl)c(COc2ccc(OC(F)(F)F)c(Cl)c2)cc1F` [Example 60, 5-Chloro-4-((3-chloro-4-(trifluoromethoxy)phenoxy)methyl)-2-fluoro-N-(methylsulfonyl)benzamide], 0.029 µM; with `CS(=O)(=O)NC(=O)c1cc(Cl)c(COc2ccc(OC(F)F)c(Cl)c2)cc1F` [Example 61, 5-Chloro-4-{[3-chloro-4-(difluoromethoxy)phenoxy]methyl}-2-fluoro-N-(methylsulfonyl)benzamide], below 0.3 µM. Consider `CS(=O)(=O)NC(=O)c1cc(Cl)c(COc2ccc(Cl)c(OC(F)F)c2)cc1F` [Example 62, 5-Chloro-4-{[4-chloro-3-(difluoromethoxy)phenoxy]methyl}-2-fluoro-N-(methylsulfonyl)benzamide], for which the IC50 is below 3 µM. On to `CS(=O)(=O)NC(=O)c1cc(Cl)c(COc2ccc(Cl)c(OC(F)(F)F)c2)cc1F` [Example 63, 5-Chloro-4-{[4-chloro-3-(trifluoromethoxy)phenoxy]methyl}-2-fluoro-N-(methylsulfonyl)benzamide], for which the IC50 was 0.035 µM. With `COc1cc(Cl)ccc1OCc1ccc(C(=O)NS(C)(=O)=O)cc1` [Example 64, 4-[(4-Chloro-2-methoxyphenoxy)methyl]-N-(methylsulfonyl)benzamide], the IC50 is above 3 µM.

As to `CS(=O)(=O)NC(=O)c1ccc(COc2ccc(C(F)(F)F)c(Cl)c2)cc1` [Example 65, 4-{[3-Chloro-4-(trifluoromethyl)phenoxy]methyl}-N-(methylsulfonyl)benzamide], the IC50 is 0.08 µM. As to `COc1cc(COc2cc(F)c(C(=O)NS(C)(=O)=O)cc2F)ccc1Cl` [Example 66, 4-(4-Chloro-3-methoxybenzyloxy)-2,5-difluoro-N-(methylsulfonyl)benzamide], the IC50 was above 1 µM.

Turning to `CS(=O)(=O)NC(=O)c1cc(F)c(OCc2ccc(Cl)c(C#N)c2)cc1F` [Example 67, 4-(4-Chloro-3-cyanobenzyloxy)-2,5-difluoro-N-(methylsulfonyl)benzamide Diethylamine salt], the IC50 was 9.2 µM. With `COc1ccc(COc2cc(F)c(C(=O)NS(C)(=O)=O)cc2F)cc1Cl` [Example 68, 4-(3-Chloro-4-methoxybenzyloxy)-2,5-difluoro-N-(methylsulfonyl)benzamide], the IC50 is 9.8 µM. Under `CS(=O)(=O)NC(=O)c1ccc(COc2ccc(Cl)c(Cl)c2)c(C#N)c1` [Example 69, 5-Cyano-4-((3,4-dichlorophenoxy)methyl)-N-(methylsulfonyl)benzamide Diethylamine salt] stands 0.24 µM.
